From publication PMC6925768, “Determination of Anlotinib, a Tyrosine Kinase Inhibitor, in Rat Plasma by UHPLC-MS/MS and Its Application to a Pharmacokinetic Study” (Journal of Analytical Methods in Chemistry, 2019)
Read-outs that look alike come from different tables or passages of the source.

Columns and labels:
[1] = Stability of stock solutions; type: physicochemical; conditions: stock solution in methanol; for Stability of stock solution, long-term test: 4°C for 2 weeks; for Stability of stock solution, short-term test: room temperature for 24 hours
Protocol: (§1) The stability of three concentrations (0.25, 5, 40 ng/mL) of QCs was analyzed under typical storage conditions: (1) rat plasma stored at room temperature for 12 hours (short-term stability); (2) rat plasma stored at −80°C for 30 days (long-term stability); and (3) under three freeze-thaw cycles from −80°C to room temperature. The stability of stock solution of anlotinib and IS was analyzed under room temperature for 24 hours as well as at 4°C for 2 weeks.

[2] = test system: advanced non-small-cell lung cancer; design: method as in PMID 30098152; conditions: advanced non-small-cell lung cancer after second-line or further treatment; cited from earlier work
[3] = Stability of anlotinib in rat plasma under various storage conditions; type: in vitro ADME; conditions: n = 3; for Short-term stability, Mean / Short-term stability, RE: room temperature 12 hours; for Freeze/thaw stability, Mean / Freeze/thaw stability, RE: three freeze-thaw cycles −80°C to room temperature; for Long-term stability, Mean / Long-term stability, RE: −80°C 30 days
Protocol: as §1

[4] = test system: human tumor xenograft models; design: method as in PMID 27716285; conditions: especially colon, ovarian, liver, renal, glioma, non-small-cell lung; cited from earlier work
[5] = Pharmacokinetic study in rats after single oral administration; type: in vivo, Sprague Dawley rats; conditions: 10 mg/kg
Protocol: Male Sprague Dawley rats weighing 250 ± 20 g were purchased from the Shanghai Laboratory Animal Co. (Shanghai, China). All experimental rats were housed in a standard cage with a humidity of 50 ± 20%, a constant temperature of 23–25°C, and a light/dark cycle condition for at least 7 days before the pharmacokinetic study. After 8 h fasting (animals had free access to water), the rats received a single oral administration with anlotinib at a dosage of 10 mg/kg. All animal experiments in present study were approved by the Institutional Animal Care and Use Committee of Wenzhou Medical University (Wenzhou, China).
Blood samples (150 μL) were collected from the tail vein before the dose and at 0.17, 0.75, 1, 1.5, 2, 3, 4, 5, 7, 9, 12, 24, and 48 h after the oral administration of anlotinib. These series of blood samples were transferred into 1.5 mL heparinized tubes. The rat blood samples were immediately centrifuged for 10 min at 5,000 rpm at 4°C, and then the separation of plasma was stored at −80°C until analysis. The noncompartmental statistical model was performed to calculate the pharmacokinetic parameters of anlotinib by Drug and Statistics 3.0 software.

[6] = test system: refractory advanced non-small-cell lung cancer; design: method as in PMID 29438373; conditions: patients with refractory advanced non-small-cell lung cancer; cited from earlier work
[7] = design: method as in PMID 29620050; conditions: reported literature, different dose; cited from earlier work
[8] = male, Sprague Dawley, rat plasma, n = 6
[9] = male, Sprague Dawley, rat, plasma, po, n = 6

Cc1ccc(NC(=O)c2ccc(CN3CCN(C)CC3)cc2)cc1Nc1nccc(-c2cccnc2)n1 [IS, Imatinib]
Stability of stock solution, long-term test [1]: 98.73% | Stability of stock solution, short-term test [1]: 99.35%

COc1cc2c(Oc3ccc4[nH]c(C)cc4c3F)ccnc2cc1OCC1(N)CC1 [anlotinib, Anlotinib]
Overall survival and progression-free survival [2]: improve overall survival (OS) and progression-free survival (PFS) | Short-term stability, Mean ([3]; 0.25 ng/ml in rat plasma): 0.26 ng/mL | Short-term stability, RE ([3]; 0.25 ng/ml in rat plasma): 4.65% | Freeze/thaw stability, Mean ([3]; 0.25 ng/ml in rat plasma): 0.26 ng/mL | Freeze/thaw stability, RE ([3]; 0.25 ng/ml in rat plasma): 2.03% | Long-term stability, Mean ([3]; 0.25 ng/ml in rat plasma): 0.25 ng/mL | Long-term stability, RE ([3]; 0.25 ng/ml in rat plasma): −1.55% | Autosampler stability, Mean ([3]; 0.25 ng/ml): 0.24 ng/mL | Autosampler stability, RE ([3]; 0.25 ng/ml): −2.27% | Short-term stability, Mean ([3]; 5 ng/ml in rat plasma): 5.21 ng/mL | Short-term stability, RE ([3]; 5 ng/ml in rat plasma): 4.27% | Freeze/thaw stability, Mean ([3]; 5 ng/ml in rat plasma): 4.94 ng/mL | Freeze/thaw stability, RE ([3]; 5 ng/ml in rat plasma): −1.13% | Long-term stability, Mean ([3]; 5 ng/ml in rat plasma): 5.19 ng/mL | Long-term stability, RE ([3]; 5 ng/ml in rat plasma): 3.75% | Autosampler stability, Mean ([3]; 5 ng/ml): 5.14 ng/mL | Autosampler stability, RE ([3]; 5 ng/ml): 2.75% | Short-term stability, Mean ([3]; 40 ng/ml in rat plasma): 41.64 ng/mL | Short-term stability, RE ([3]; 40 ng/ml in rat plasma): 4.1% | Freeze/thaw stability, Mean ([3]; 40 ng/ml in rat plasma): 40.55 ng/mL | Freeze/thaw stability, RE ([3]; 40 ng/ml in rat plasma): 1.39% | Long-term stability, Mean ([3]; 40 ng/ml in rat plasma): 41.19 ng/mL | Long-term stability, RE ([3]; 40 ng/ml in rat plasma): 2.97% | Autosampler stability, Mean ([3]; 40 ng/ml): 41.14 ng/mL | Autosampler stability, RE ([3]; 40 ng/ml): 2.85% | Stability of stock solution, long-term test [1]: 95.96% | Stability of stock solution, short-term test [1]: 98.96% | Activity against human tumor xenograft models [4]: broad activity | AUC(0-inf) [5, 8]: 186 ± 49.2 ng·h/mL | CL/F [5, 8]: 942 mL/min/kg | MRT last ([5]; male, Sprague Dawley, rat plasma, n = 6, read-out: MRT(0-t)): 8.98 ± 1.45 h | MRT inf ([5]; male, Sprague Dawley, rat plasma, n = 6, read-out: MRT(0-∞)): 9.2 ± 1.21 h | half-life ([5]; male, Sprague Dawley, rat plasma, n = 6, read-out: t 1/2 z (converted)): 5.05 ± 0.62 h | Cmax [5, 9]: 24.2 ± 4.31 ng/mL | Tmax [5, 9]: 3.33 h | AUC0-t ([5]; male, Sprague Dawley, rat, plasma, po, n = 6, read-out: AUC0-t): 184 ± 49.8 ng·h/mL | AUC0-t ([5]; rat plasma, n = 6): 184.431 ± 49.827 ng·h/mL | C max ([5]; rat plasma, n = 6): 24.219 ± 4.311 ng/mL | T max ([5]; rat plasma, n = 6): 3.333 ± 0.816 h | V/F ([5]; rat plasma, n = 6): 406.029 ± 72.748 L/kg | Progression-free survival versus placebo [6]: obvious progression-free survival (PFS) benefits | Toxicity tolerance [6]: good toxicity tolerance | t1/2 [7]: 5.7 ± 3.1 h
